Source: PubChem BioAssay AID184 (DTP/NCI, 2004)
Where “and” joins values, the source holds several entries; their conditions need not be identical. Identical values can stand only once. Toxic doses and inconclusive results are not listed. The calls were made as follows: active = survival T/C of 150% or more; inactive = T/C below 125% in these data.

Tested on: BALB/cJ mice, ADJ-PC-6 ip tumor, median survival T/C
Test: NCI In Vivo Anticancer Drug Screen. Data for tumor model ADJ-PC-6 (intraperitoneal) in BALB/cJ mice
Conditions: endpoint: median survival time, higher = longer survival
Experimental: The antitumor activity of compounds was measured in mice bearing transplantable tumors. Survival or tumor size were measured and the results are expressed as the measurement made in the treated group (T) divided by the measurement made in the vehicle treated control group (C). The tumor model used in this assay is ADJ-PC-6 (intraperitoneal) in BALB/cJ mice

[1] = dose: 10.0 mg/kg/injection, schedule: Q04DX003 (ip), vehicle: saline

Measured: T/C

ClCC[N+]12CC[N+](CCCl)(CC1)C2
inactive: dose: 10.0 mg/kg/injection, schedule: Q01DX009 (ip), vehicle: saline 88 % of control and 96 % of control and 111 % of control | dose: 20.0 mg/kg/injection, schedule: Q01DX009 (ip), vehicle: saline 100 % of control and 103 % of control | dose: 40.0 mg/kg/injection, schedule: Q01DX009 (ip), vehicle: saline 106 % of control | dose: 80.0 mg/kg/injection, schedule: Q01DX009 (ip), vehicle: saline 107 % of control and 113 % of control (2×) | dose: 160.0 mg/kg/injection, schedule: Q01DX009 (ip), vehicle: saline 96 % of control and 102 % of control and 103 % of control

Nc1nc(=S)c2[nH]cnc2[nH]1
active: dose: 0.5 mg/kg/injection, schedule: Q01DX009 (ip), vehicle: alkali diluted with saline 194 % of control and 239 % of control | dose: 1.0 mg/kg/injection, schedule: Q01DX009 (ip), vehicle: alkali diluted with saline 194 % of control and 267 % of control | dose: 2.0 mg/kg/injection, schedule: Q01DX009 (ip), vehicle: alkali diluted with saline 194 % of control and 267 % of control | dose: 4.0 mg/kg/injection, schedule: Q01DX009 (ip), vehicle: alkali diluted with saline 194 % of control

O=P1(N(CCCl)CCCl)NCCCO1 (stereo not given)
inactive: [1] 99 % of control | dose: 10.0 mg/kg/injection, schedule: Q04DX003 (iv), vehicle: saline 88 % of control | dose: 19.4 mg/kg/injection, schedule: Q04DX003 (ip), vehicle: saline 108 % of control | dose: 20.0 mg/kg/injection, schedule: Q04DX003 (ip), vehicle: saline 109 % of control and 110 % of control | dose: 20.0 mg/kg/injection, schedule: Q04DX003 (iv), vehicle: saline 95 % of control
active: dose: 32.4 mg/kg/injection, schedule: Q04DX003 (ip), vehicle: saline 166 % of control | dose: 40.0 mg/kg/injection, schedule: Q04DX003 (ip), vehicle: saline 173 % of control and 178 % of control | dose: 54.0 mg/kg/injection, schedule: Q04DX003 (ip), vehicle: saline 189 % of control | dose: 80.0 mg/kg/injection, schedule: Q04DX003 (ip), vehicle: saline 168 % of control and 335 % of control | dose: 80.0 mg/kg/injection, schedule: Q04DX003 (iv), vehicle: saline 194 % of control | dose: 90.0 mg/kg/injection, schedule: Q04DX003 (ip), vehicle: saline 267 % of control | dose: 150.0 mg/kg/injection, schedule: Q04DX003 (ip), vehicle: saline 340 % of control | dose: 160.0 mg/kg/injection, schedule: Q04DX003 (ip), vehicle: saline 194 % of control and 335 % of control | dose: 160.0 mg/kg/injection, schedule: Q04DX003 (iv), vehicle: saline 194 % of control

CC(=O)O[C@H]1C(=O)[C@@]2(C)[C@H]([C@H](OC(=O)c3ccccc3)[C@]3(O)C[C@H](OC(=O)[C@H](O)[C@@H](NC(=O)c4ccccc4)c4ccccc4)C(C)=C1C3(C)C)[C@]1(OC(C)=O)CO[C@@H]1C[C@@H]2O
inactive: dose: 0.75 mg/kg/injection, schedule: Q01DX009 (ip), vehicle: Klucel (hydroxypropylcellulose) (HPC) 102 % of control | dose: 1.56 mg/kg/injection, schedule: Q01DX009 (ip), vehicle: Klucel (hydroxypropylcellulose) (HPC) 118 % of control | dose: 3.0 mg/kg/injection, schedule: Q01DX009 (ip), vehicle: Klucel (hydroxypropylcellulose) (HPC) 112 % of control | dose: 3.12 mg/kg/injection, schedule: Q01DX009 (ip), vehicle: Klucel (hydroxypropylcellulose) (HPC) 112 % of control | dose: 6.0 mg/kg/injection, schedule: Q01DX009 (ip), vehicle: Klucel (hydroxypropylcellulose) (HPC) 121 % of control | dose: 12.0 mg/kg/injection, schedule: Q01DX009 (ip), vehicle: Klucel (hydroxypropylcellulose) (HPC) 124 % of control

NC(C/[N+]([O-])=N/O)C(=O)O (stereo not given)
inactive: dose: 50.0 mg/kg/injection, schedule: Q04DX003 (ip), vehicle: alkali diluted with saline 108 % of control | dose: 100.0 mg/kg/injection, schedule: Q04DX003 (ip), vehicle: alkali diluted with saline 115 % of control
active: dose: 250.0 mg/kg/injection, schedule: Q04DX003 (ip), vehicle: alkali diluted with saline 153 % of control | dose: 400.0 mg/kg/injection, schedule: Q04DX003 (ip), vehicle: alkali diluted with saline 171 % of control | dose: 500.0 mg/kg/injection, schedule: Q04DX003 (ip), vehicle: alkali diluted with saline 188 % of control | dose: 800.0 mg/kg/injection, schedule: Q04DX003 (ip), vehicle: alkali diluted with saline 167 % of control

Cc1c(N)nc([C@H](CC(N)=O)NC[C@H](N)C(N)=O)nc1C(=O)N[C@H](C(=O)N[C@H](C)[C@@H](O)[C@H](C)C(=O)N[C@H](C(=O)NCCc1nc(-c2nc(C(=O)NCCC[S+](C)C)cs2)cs1)[C@@H](C)O)C(OC1OC(CO)C(O)C(O)C1OC1OC(CO)C(O)C(OC(N)=O)C1O)c1cnc[nH]1 (stereo not given in full)
inactive: dose: 3.75 mg/kg/injection, schedule: Q04DX003 (ip), vehicle: saline 101 % of control and 108 % of control | dose: 7.5 mg/kg/injection, schedule: Q04DX003 (ip), vehicle: saline 89 % of control and 116 % of control | dose: 15.0 mg/kg/injection, schedule: Q04DX003 (ip), vehicle: saline 102 % of control | dose: 30.0 mg/kg/injection, schedule: Q04DX003 (ip), vehicle: saline 105 % of control and 112 % of control | dose: 60.0 mg/kg/injection, schedule: Q04DX003 (ip), vehicle: saline 106 % of control and 116 % of control

O=C(O)c1ccc(C(=O)O)o1.[NH-]C1CCCCC1[NH-].[Pt+2]
active: dose: 2.59 mg/kg/injection, schedule: Q04DX003 (ip), vehicle: water 265 % of control | dose: 4.3 mg/kg/injection, schedule: Q04DX003 (ip), vehicle: water 254 % of control | dose: 7.2 mg/kg/injection, schedule: Q04DX003 (ip), vehicle: water 367 % of control | dose: 12.0 mg/kg/injection, schedule: Q04DX003 (ip), vehicle: water 234 % of control | dose: 20.0 mg/kg/injection, schedule: Q04DX003 (ip), vehicle: water 451 % of control

CCN(CC)CCOC(=O)c1ccc(NCN2C(=O)CCC2=O)cc1
inactive: dose: 10.0 mg/kg/injection, schedule: Q01DX009 (ip), vehicle: water 110 % of control | dose: 20.0 mg/kg/injection, schedule: Q01DX009 (ip), vehicle: water 96 % of control | dose: 40.0 mg/kg/injection, schedule: Q01DX009 (ip), vehicle: water 98 % of control | dose: 80.0 mg/kg/injection, schedule: Q01DX009 (ip), vehicle: water 105 % of control | dose: 160.0 mg/kg/injection, schedule: Q01DX009 (ip), vehicle: water 92 % of control

CO[C@@]12[C@H](COC(N)=O)C3=C(C(=O)C(C)=C(N)C3=O)N1C[C@@H]1N[C@@H]12
active: dose: 1.5 mg/kg/injection, schedule: Q04DX003 (ip), vehicle: saline 239 % of control | dose: 3.0 mg/kg/injection, schedule: Q04DX003 (ip), vehicle: saline 335 % of control

CO[C@H](C(=O)[C@@H](O)[C@@H](C)O)[C@@H]1Cc2cc3cc(OC4CC(OC5CC(O)C(O)C(C)O5)C(O)C(C)O4)c(C)c(O)c3c(O)c2C(=O)[C@H]1OC1CC(OC2CC(OC3CC(C)(O)C(O)C(C)O3)C(O)C(C)O2)C(O)C(C)O1 (stereo not given in full)
inactive: dose: 0.13 mg/kg/injection, schedule: Q04DX003 (ip), vehicle: clinical formulation 104 % of control | dose: 0.25 mg/kg/injection, schedule: Q04DX003 (ip), vehicle: clinical formulation 108 % of control | dose: 125.0 micrograms/kg/injection, schedule: Q04DX003 (ip), vehicle: saline 100 % of control

CN(C)c1nc(N(C)C)nc(N(C)C)n1
inactive: dose: 20.0 mg/kg/injection, schedule: Q01DX009 (ip), vehicle: saline with Tween-80 102 % of control | dose: 40.0 mg/kg/injection, schedule: Q01DX009 (ip), vehicle: Klucel (hydroxypropylcellulose) (HPC) 96 % of control | dose: 40.0 mg/kg/injection, schedule: Q01DX009 (ip), vehicle: saline with Tween-80 100 % of control

N[C@@H](Cc1ccc(N(CCCl)CCCl)cc1)C(=O)O
active: dose: 2.0 mg/kg/injection, schedule: Q04DX003 (ip), vehicle: saline 177 % of control | dose: 2.5 mg/kg/injection, schedule: Q04DX003 (ip), vehicle: saline 203 % of control | dose: 4.0 mg/kg/injection, schedule: Q04DX003 (ip), vehicle: saline 236 % of control | dose: 5.0 mg/kg/injection, schedule: Q04DX003 (ip), vehicle: saline 240 % of control | dose: 8.0 mg/kg/injection, schedule: Q04DX003 (ip), vehicle: saline 230 % of control | [1] 335 % of control | dose: 16.0 mg/kg/injection, schedule: Q04DX003 (ip), vehicle: saline 307 % of control

COc1cccc2c1C(=O)c1c(O)c3c(c(O)c1C2=O)C[C@@](O)(C(=O)CO)C[C@@H]3OC1CC(N)C(O)C(C)O1 (stereo not given in full)
active: dose: 8.0 mg/kg/injection, schedule: Q04DX003 (iv), vehicle: saline 168 % of control and 225 % of control
inactive: dose: 0.5 mg/kg/injection, schedule: Q04DX003 (iv), vehicle: saline 103 % of control | dose: 1.0 mg/kg/injection, schedule: Q04DX003 (iv), vehicle: saline 92 % of control | dose: 2.0 mg/kg/injection, schedule: Q04DX003 (iv), vehicle: saline 97 % of control | dose: 4.0 mg/kg/injection, schedule: Q04DX003 (iv), vehicle: saline 95 % of control
